US8293716B2, “Method of treating cancer by modulation of mortalin” (Ramot At Tel Aviv University Ltd., priority 2005, dated 2012)
Where a SMILES comes first, the peptide text is derived from it. The star is where a group is joined. Cbz = O=C(OCc1ccccc1)*; CH2F = FC*

Assays:
K562 cells [1] = experiment: Complement-induced protection assay; assay type: cell-based, human; conditions: cells pre-treated with inhibitor and sublytic complement, then lytic dose of antibody and complement; FIGS. 6f-g
Protocol: (§1) Cell lysis and induced protection assays: Cytotoxicity assays were performed as previously described (Reiter, Y. and Fishelson, Z. 1992. Mol Immunol 29:771). Briefly, cells were incubated with diluted anti-K562 antiserum for 30 minutes at 4 degrees centigrade and then with complement (NHS, C7- or C8-deficient serum or HI-NHS, 50 percent) for 60 minutes at 37 degrees centigrade. Cell lysis was determined via Trypan blue staining. For the complement-induced protection assays, the cells were first treated with sublytic doses of antibody and NHS, washed and then incubated with lytic doses of antibody and NHS (Reiter, Y. et al., 1992. Eur J Immunol 22:1207). Statistical significance was analyzed by using the two-sided unpaired student's t-test.

mortalin [2] = experiment: Mortalin release into supernatants of K562 cells, SDS-PAGE and Western blotting; assay type: cell-based, human; conditions: for release of mortalin from complement-treated cells: 30 minutes pretreatment (PMB 100 micrograms per milliliter, PD98059 10 micromolar), then sublytic anti-K562 antibody and NHS, FIGS. 6a-d; for mortalin release in response to sublytic dose of pore-former: mellitin 70 micromolar, SLO 900 units per milliliter, 10 minutes 37 degrees, no complement, FIGS. 4c-d
Protocol: (§2) Collection of extracellular protein: Cells were treated with antibodies for 30 minutes at 4 degrees centigrade and then with NHS or HI-NHS (50 percent) for 10 minutes at 37 degrees centigrade. Then, the cells were extensively washed into HBSS and incubated at 37 degrees centigrade. At different times, cells were removed by centrifugation at 250×g and supernatants were collected and kept frozen until analyzed. In some experiments, cells were first metabolically labeled for 2 hours at 37 degrees centigrade with an L-[^35S]methionine, L-[^35S]cysteine mix (Amersham Pharmacia, Uppsala, Sweden) at 200 microcuries per milliliter in RPMI (lacking methionine and cysteine) and 20 millimolar HEPES-pH 7.0. Cytotoxicity assays and collection of extracellular proteins were performed as described above. Radioactivity in the supernatants was quantified in a beta-Scintillation Counter (Tri-Carb, Packard).
Protein analyses: Protein concentration was analyzed with the BCA Protein Assay Kit (Pierce, Rockford, Ill., USA). Samples of 20 micrograms of protein was subjected to SDS-PAGE under reducing conditions (50 millimolar DTT), in a 10 percent acrylamide gel, and stained with Coomassie Blue or silver. Selected protein species were excised from Coomassie Blue-stained gels and analyzed by mass spectrometry (MALDI-MS) at the Maiman Institute for Proteome Research (Tel-Aviv University). Alternatively, the electrophoretically separated proteins were transferred onto a nitrocellulose membrane (Schleicher & Schuell, Dassel, Germany). The membrane was blocked with 5 percent skim milk (Tnuva, Rehovot, Israel) in Tris-buffered saline containing 0.05 percent Tween-20 (Sigma; TBST) for 1 hour at room temperature. The membrane was treated with rabbit anti-mortalin antibodies and then with peroxidase-conjugated goat anti-rabbit IgG. The labeled membrane was developed with an enhanced chemiluminescence reagent (Pierce, Rockford, Ill., USA) and exposed to a SuperRX film (Fuji, Tokyo, Japan).

K562 cells [3] = experiment: Release of metabolically-labeled proteins from complement-treated K562 cells; assay type: cell-based, human; conditions: pretreatment 30 minutes with 100 micrograms per milliliter PMB or 10 micromolar PD; radioactivity in supernatants; FIG. 6e
Protocol: as §2

solid tumors = conditions: cited from earlier work
K562 cells [4] = experiment: Complement-mediated cell lysis (cytotoxicity) assay, Trypan blue staining; assay type: cell-based, human; conditions: 10 micromolar cathepsin L inhibitor 30 minutes, anti-K562 1:40 or 1:50, NHS 60 minutes; versus DMSO; FIG. 8b
Protocol: (§3) Cells and cell lysates: The human erythroleukemic cell line K562 was cultured in RPMI-1640 medium supplemented with 10 percent (v/v) heat-inactivated fetal bovine serum (Gibco laboratories, Grand Island, NY, USA), 1 percent glutamine, 2 percent pyruvate and antibiotics mixture (Bio-Lab, Jerusalem, Israel), at 37 degrees centigrade in a 5 percent carbon dioxide atmosphere. To prepare cell lysates, 20 million cells were mixed with 1 milliliter lysis buffer composed of 100 millimolar Tris-pH 7.5, 10 millimolar EDTA, protease inhibitor cocktail (Sigma) and 0.7 percent Triton X-100. After 3 cycles of freezing and thawing, the cell lysate was subjected to centrifugation for 15 minutes at 14,000×g, and the supernatant was collected and diluted with 1 milliliter HBSS (Sigma, Rehovot, Israel).
as §1, with “For the complement-induced protection assays, the cells were first treated with sublytic doses of antibody and NHS, washed and then incubated with lytic doses of antibody and NHS (Reiter, Y. et al., 1992. Eur J Immunol 22:1207).” left out

mortalin [5] = experiment: Mortalin expression level in K562 cells, Western blotting of cell lysates; assay type: cell-based, human; conditions: cathepsin L inhibitor 5, 10, 20 or 40 micromolar, 30 minutes 37 degrees; FIG. 8a
Protocol: as §3
Protein analyses: Protein concentration was analyzed with the BCA Protein Assay Kit (Pierce, Rockford, Ill., USA). Samples of 20 micrograms of protein was subjected to SDS-PAGE under reducing conditions (50 millimolar DTT), in a 10 percent acrylamide gel, and stained with Coomassie Blue or silver. Selected protein species were excised from Coomassie Blue-stained gels and analyzed by mass spectrometry (MALDI-MS) at the Maiman Institute for Proteome Research (Tel-Aviv University). […]

Molecule: COc1cccc(-c2cc(=O)c3ccccc3o2)c1N [PD98059]
- acquired resistance to lytic complement after sublytic complement (K562 cells [1]): did not acquire the resistance to lytic complement
- release of mortalin from complement-treated cells (mortalin [2]): significantly reduced
- complement-induced release of metabolically-labeled proteins (K562 cells [3]): blocked

Molecule: polymyxin B [PMB]
- acquired resistance to lytic complement after sublytic complement (K562 cells [1]): did not acquire the resistance to lytic complement
- release of mortalin from complement-treated cells (mortalin [2]): significantly reduced
- complement-induced release of metabolically-labeled proteins (K562 cells [3]): blocked

Molecule: CCn1c(=O)/c(=C2\Sc3ccccc3N2C)s/c1=C\c1cccc[n+]1CC.[Cl-] [MKT-077]
- kidney toxicity in human patients (solid tumors; Propper et al. 1999): irreversible kidney damage
- effectiveness when used to treat cancer patients (solid tumors; cancer patients): ineffective or suboptimally effective

Molecule: mellitin
- mortalin release in response to sublytic dose of pore-former (mortalin [2]): not released

Molecule: O=C(N[C@@H](Cc1ccccc1)C(=O)N[C@@H](Cc1ccccc1)C(=O)CF)OCc1ccccc1 [cathepsin L inhibitor, Z-Phe-Phe-CH2F] (Cbz-Phe-Phe-CH2F)
- resistance of treated cells to lysis by antibody and complement (K562 cells [4]): enhanced resistance
- mortalin expression in K562 cells (mortalin [5]): elevation of mortalin expression

Molecule: Streptolysin O [SLO]
- mortalin release in response to sublytic dose of pore-former (mortalin [2]): not released
